Source: the METLIN SMRT retention time set (Domingo-Almenara et al. 2019)

Test: gradient 5% acetonitrile 3 min, to 50% in 2 min, to 85% in 15 min, held 3 min, 100 µL/min
Details: column: Zorbax Extend-C18 2.1 x 50 mm; eluents: water / acetonitrile, 0.1% formic acid
Summary of the method: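 The mobile phases were water and acetonitrile, each with 0.1% formic acid, pumped at 100 μL/min through a Zorbax Extend-C18 column (2.1 × 50 mm, 1.8 μm). Pure standards were injected as mixtures of ~100 molecules and detected by a quadrupole time-of-flight mass spectrometer in positive and negative ionization mode. Retention time came from computationally picked adduct peaks, each inspected by hand.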

SMILES	RP-LC retention time
CCc1nn2c(CNC(=O)c3ccc(C(F)(F)F)cc3)c(C)nc2s1	714 s
Cc1ccc(-c2noc(C(=O)N3CCCC3)n2)cc1S(=O)(=O)N1CCN(c2ccccn2)CC1	700 s
CC(C)c1nnc2ccc(N3CCCC3)nn12	819 s
O=C(Cn1cc(-c2ccc(F)cc2)oc1=O)N1CCN(c2cccc(Cl)c2)CC1	972 s
CCN1CCC(N(Cc2ccc3c(c2)OCO3)C(=O)Nc2ccc(OC)c(OC)c2)CC1	616 s
CCc1cccc(NC(=O)C2(C)CCCCC(=O)N2)c1 (stereo unspecified)	753 s
CCOC(=O)C1=C(C)NC2=C(C(=O)c3ccccc32)C1c1ccccc1OC (stereo unspecified)	950 s
COCC(=O)NCc1nnnn1C1CCCCC1	608 s
CCNc1cc(N2CCC(CCC(=O)O)CC2)ncn1	576 s
CCn1cc(C(=O)Nc2ccc(F)c(F)c2)c(S(=O)(=O)N2CCSCC2)n1	1010 s
COCCCNc1c(-c2cccc(F)c2)nc2sc(C(=O)N3CCCC3)c(C)n12	824 s
COc1ccc(NC(=O)c2c(C)oc3nc(C)nc(N4CCOCC4)c23)cc1OC	711 s
CCN1CCN(Cc2nc3cc(NC(=O)CC(C)C)ccc3n2C(C)C)CC1	571 s
Cc1ccc2c(Nc3ccc(S(N)(=O)=O)cc3)c(C(=O)N3CCCCCC3)cnc2n1	595 s
Cc1cccc(N2CCN(C(=O)c3cn4ccccc4n3)CC2)c1C	776 s
CCC1CCCCN1C(=O)CN1CCCN(Cc2cc(C)ccc2C)S1(=O)=O (stereo unspecified)	1150 s
Cc1ccccc1-c1nc(Cn2ccnc2)no1	609 s
CCc1nc2cc(N3CCC(C(=O)NCc4cc(F)cc(F)c4)CC3)cnc2nc1CC	838 s
CC(C)c1ccc(S(=O)(=O)N2CCC(C(=O)NCc3csc(-c4ccccc4)n3)CC2)cc1	1070 s
COc1cccc(Cn2nc(-c3nc(-c4ccc(F)cc4)no3)ccc2=O)c1	1060 s
Cc1cccc(CNC2=NCCNC23CCN(S(=O)(=O)c2c(C)cc(C)cc2C)CC3)c1	846 s
COc1cc(OC)cc(-c2nc(-c3ccc4c(c3)oc(=O)n4C)no2)c1	1060 s

SMILES	RP-LC retention time
N#CCCSc1ccccc1NC(=O)c1ccc(C(=O)c2ccccc2)cc1	924 s
CO[C@@H]1C=C2CCN(C)[C@@H]2C2c3cc4c(cc3C(=O)O[C@@H]21)OCO4 (stereo partly specified)	604 s
CCc1ccccc1S(=O)(=O)N1CCc2nc[nH]c2C1	612 s
CN=C(NC#N)NCCSCc1csc(N=C(N)N)n1	616 s
O=C(CN1CCN(Cc2ccccc2F)C1=O)NCc1ccc(N2CCCCC2)cc1	605 s
CCc1nc2cc(-c3noc(Cc4cccc(C(F)(F)F)c4)n3)ccc2o1	1170 s
CC(=O)c1cccc(NC(=O)Cn2c(=O)n(-c3cccc(C)c3)c(=O)c3c2cc(C)n3C)c1	796 s
COc1ccc(-c2ncc3c(n2)CCN(S(=O)(=O)c2ccc(C)cc2)C3)cc1	1050 s
CCOc1ccc(-c2noc(Cn3ncn4nc(-c5ccc(F)cc5)cc4c3=O)n2)cc1OC	1070 s
CC(C)(C)c1noc(-c2ccnc(-n3cnc(C(=O)N4CCCCCC4)c3)c2)n1	998 s
O=C(Nc1ccnn1Cc1ccccc1)c1cc(=O)c2cc(Br)ccc2o1	907 s
CCc1cccc(Nc2nc(C)cc(=O)n2CC(=O)Nc2ccc3c(c2)OCCO3)c1	1040 s
CC(C)C(=O)NCC(c1ccc(N(C)C)cc1)N1CCN(c2ccc(F)cc2)CC1 (stereo unspecified)	592 s
O=C(COc1ccc2ccccc2c1)Nc1nc(-c2ccccc2)cs1	1180 s
CCC(C)N(CCNC(=O)Cc1noc2ccccc12)Cc1ccco1 (stereo unspecified)	664 s
O=C(CCc1csc(NC(=O)c2ccc(=O)[nH]c2)n1)NCc1ccccn1	542 s
CCOc1cc(=O)n2c(c1C(=O)NCCCN1CCCc3ccccc31)CCCCC2	733 s
O=C(CSc1nnc(NC(=O)c2ccccc2C(F)(F)F)s1)NC1CCCCC1	781 s
N#Cc1ccc(S(=O)(=O)NC2CCc3nn(CC4CC4)c(=O)n3CC2)cc1 (stereo unspecified)	616 s
Cc1ccc(S(=O)(=O)[C@H]2CS(=O)(=O)C[C@@H]2N2CCN(Cc3ccccc3)CC2)cc1	651 s
O=c1c2nc(-c3ccc4c(c3)OCO4)cn2ccn1-c1cccc(Cl)c1	834 s
COc1cc(C(=O)NC2CCN(c3cc(-c4ccc(Cl)cc4)[nH]n3)C2)cc(OC)c1OC (stereo unspecified)	767 s

SMILES	RP-LC retention time
O=C(NCC1CCCO1)c1nnn(-c2ccc(F)cc2)c1-c1ccncc1 (stereo unspecified)	679 s
COc1ccccc1-c1nc(Cn2nnc(-c3nc(-c4ccc(F)cc4)no3)c2C)c(C)o1	1160 s
Cc1nnc(NC(=O)CN(C)c2nc3c(Cl)cccc3s2)s1	742 s
CC(C)C(=O)Nc1ccc(C2(C(=O)N3CCN(C(C)C)CC3)CCCCC2)cc1	652 s
COc1ccc(-c2nc(-c3ccc(S(=O)(=O)N4CCCCC4)cc3)no2)cc1	1280 s
O=C(CCc1nc2ccccc2s1)N1CCC(c2noc(-c3ccncc3)n2)C1 (stereo unspecified)	760 s
O=C(NC1CCc2ccccc21)C1CCN(Cc2noc(-c3ccc(F)cc3)n2)CC1 (stereo unspecified)	683 s
Cc1ccc2[nH]cc(CCNC(=O)C3CCCN(C(=O)c4[nH]c(C)cc4C)C3)c2c1 (stereo unspecified)	832 s
COCCN(Cc1ccco1)c1nc(-c2ccc(OC)cc2)nc2ccccc12	792 s
Cc1cccc(-n2c(=O)c3c(cc(C)n3C)n(CC(=O)Nc3ccc4c(c3)OCO4)c2=O)c1	837 s
Cc1sc2ncnc(SCC(=O)c3ccc4c(c3)OCCO4)c2c1C	1040 s
O=C(C1CCN(c2nc(-c3ccc(Cl)cc3)no2)CC1)N1CCC(N2CCCCC2)CC1	701 s
Cc1ccc(CNC(=O)c2cn3c(n2)CCCC3)cc1	604 s
CC(C)COc1cc(=O)n2c(c1C(=O)NCC1CCCCC1)CCCCC2	864 s
O=C(Cn1c(=O)c2cc(C3CC3)nn2c2ncccc21)N1CCCc2ccccc21	832 s
Cc1ccc(S(=O)(=O)N(C)c2ccc(OCC(=O)N3CCOCC3)cc2)cc1	732 s
Cc1nnc2c(N3CCN(c4ccccn4)CC3)nc3ccc(C(=O)c4ccccc4)cc3n12	672 s
CS(=O)(=O)c1ccccc1C(=O)Nc1ccc2sccc2c1	757 s
COc1ccc(C2(C(=O)N3CCC(OCCOc4ccc(F)cc4)CC3)CC2)cc1	997 s
COc1ccc(NC(=O)c2sc(-c3cn(C(C)C)c4ncccc34)nc2C)cc1OC	944 s
COc1ccccc1N1CCN(S(=O)(=O)CCNC(=O)CCCc2ccccc2)CC1	832 s
CCCNC(=O)C1CC(=O)N(c2ccc3c(c2)CCN3C(=O)C2CC2)C1 (stereo unspecified)	659 s
